Ends that are not written are not given here.
Assays:
[1] = tested on: HME, HME/IRIS, MDA-MB-231, MDA-MB-468 and BT549 cells; assay: Survival of breast cell lines with IRIS peptide, paclitaxel or both; type: cell-based, human; conditions: all cell lines; IRIS peptide alone, 0.5 μM (HME) or 5 μM (others), 24 hours
Protocol: To investigate whether inactivating BRCA1-IRIS could sensitize TNBC to paclitaxel-induced cell death, HME cells were exposed to 0.5 μM, while HME/IRIS, MDA-MB-231, MDA-MB-468 and BT549 cells were exposed to 5 μM of IRIS peptide alone or with 5, 10 or 20 μM of paclitaxel for 24 hours. […] Again, IRIS peptide alone at these concentrations led to 50% reduction in survival of all cell lines. […] Indeed, in the presence of IRIS peptide >60%, >70% and >90% reduction in the survival of all cell lines in the presence of 5, 10 and 20 μM of paclitaxel, respectively (FIG. 84).
Cell viability measurement. Cell viability under different experimental conditions was determined using the MTS assay. Briefly, cells (2.5×10^4 cells per well) were seeded in 96-well plates and incubated overnight at 37° C. in 10% humidified CO2 atmosphere. The next day they were incubated with varying concentration of peptide, or inhibitors for 24 hours at 37° C. Cell viability was determined using cell Titer 96® Aqueous (Promega, Madison, Wis., USA) following manufacturer's instructions. Cell viability (%) was expressed as a ratio of treated cells to control cells×100. Growth inhibition was also determined by manually counting cells in five different microscopic fields. Change in cell numbers (fold) was expressed as a ratio of the means of these recording of treated cells compared to control cells×100. Each experiment was done in triplicate, repeated three separate times.

BRCA1-IRIS and survivin = assay: IHC of SKOV3 tumors for BRCA1-IRIS and survivin; type: in vivo, mice; conditions: SKOV3 tumors after treatment
Source text: Isolated tumors were mounted, sectioned and IHC stained for BRCA1-IRIS and survivin. […] It is possible that SKOV3 contain a heterogeneous population of cells that differ in their BRCA1-IRIS expression and thus that the remaining tumors are from those expressing no or low BRCA1-IRIS.
Immunohistochemistry (IHC). Ovarian tissue microarrays comprised of normal, cancer and metastatic tissues were purchased from US Biomax, Inc. Paraffin-embedded tissue sections were de-waxed in xylene and rehydrated in alcohol. Antigen-retrieval for FOXO3a and survivin was performed by heating the slides in citrate buffer (10 μM, pH 6.0) using microwave for 10 minutes. Slides were then cooled to room temperature (RT) and washed with water followed by PBS for 15 minutes each. Antigen-retrieval for BRCA1-IRIS was performed by incubating the slides in pepsin (10 μM) for 20 minutes at 37° C. Endogenous peroxidase activity was suppressed by treating the slides with 3% hydrogen peroxide for 10 minutes. After washing steps slides were incubated for 1 hour at room temperature with antibodies to human FOXO3a (Cell Signaling Technology, USA 1:400) and survivin (Cell Signaling Technology, USA 1:400). For BRCA1-IRIS staining, slides were incubated overnight at 4° C. with monoclonal BRCA1-IRIS antibody at a 1:75 dilution. […]

SKOV3 cells [2] = assay: Hanging drops (anchorage independent growth), SKOV3; type: cell-based, human; conditions: IRIS peptide 5 μM versus scrambled peptide
Protocol: Hanging drops: In this technique, the anchorage independent growth ability of cells was measured.
Hanging Drop Method. Single-cell suspensions were made from monolayer cultures in growth medium. Cell density used was 250 cells per drop (20 μl) of medium dispensed onto a 6 cm dish (Corning Life Sciences, Union City, Calif.). The dish was then inverted, the drops were held in place by surface tension, and cells accumulated at the free liquid-air interface. The dishes were placed on a tray with water and incubated under standard conditions. Hanging cell-drops formed was analyzed using microscope. All experiments were done in triplicate.

BRCA1-IRIS = BRCA1-IRIS expression in ovarian cells (Western analysis); type: cell-based, human; conditions: all ovarian cell lines; 10 μM of IRIS peptide for 24 hours
Source text: At these low concentrations of cisplatin BRCA1-IRIS expression was induced in HOSE cells and remained high in HOSE/IRIS cells (FIG. 17). […] Cell lines expressing the lowest levels of BRCA1-IRIS (i.e.

SKOV3 cells [3] = assay: Invasion assay, matrigel-coated Boyden chambers, SKOV3; type: cell-based, human; conditions: 72 hours, IRIS peptide 5 μM, versus control-treated cells
Protocol: Invasion assay: Control (transfected with siLuc or treated with scrambled peptide, 5 μM) or shIRIS expressing SKOV3 cells were layered on top of matrigel-coated Boyden chambers. Some cultures were treated with 5 μM IRIS peptide. Seventy-two hours later, cells that invaded the matrigel and migrated to the lower side of the chambers were stained with Crystal Violet, counted and photographed. […] Similarly, BRCA1-IRIS silenced cells also lost their invasion ability by ˜75 fold (compare C to A in FIG. 36 and FIG. 35).
Cell Invasion assay. Growth reduced BD Matrigel™ invasion chamber (24 well plate, 8.0 μm, BD BioCoat™) was used to study the invasion ability of control and shBRCA1-IRIS cells. Cells (5×10^3) in complete medium (500 μl) were seeded on the upper compartment, and the lower compartment was filled with 750 μl of complete growth medium. Cells were incubated for 72 hours. The medium from the upper chamber was removed, and the cells on the upper surface of the membrane were removed carefully with a cotton swab. Invasive cells in lower side of the membrane were stained with crystal violet dye for 10 minutes. After staining, the upper chamber was rinse thoroughly with water until the water runs clear. Stained and dry chambers were visualized with microscope and photographed.

[4] = tested on: AKT, p-AKT, p-FOXO and FOXO3a; assay: Signalling proteins in MDA-MB-231 and MDA-MB-468 cells (Western); type: cell-based, human
Source text: This was completely in line with decreased MDM2 and Skp2 (the ubiquitin ligases responsible for p-FOXO degradation) expression in BRCA1-IRIS silenced and BRCA1-IRIS and AKT inactivated cells (FIG. 87).

BT549 cells = conditions: 48 h
Protocol: All cell lines were exposed to increasing concentrations of paclitaxel and BRCA1-IRIS expression, and cells' viability was then measured.
Cell viability measurement. Cell viability under different experimental conditions was determined using the MTS assay. Briefly, cells (2.5×10^4 cells per well) were seeded in 96-well plates and incubated overnight at 37° C. in 10% humidified CO2 atmosphere. The next day they were incubated with varying concentration of peptide, or inhibitors for 24 hours at 37° C. Cell viability was determined using cell Titer 96® Aqueous (Promega, Madison, Wis., USA) following manufacturer's instructions. Cell viability (%) was expressed as a ratio of treated cells to control cells×100. […] Each experiment was done in triplicate, repeated three separate times.

RRIRPRPPRLPRPRPRPLPFPRPGIGTRFLCLPQSIYRSELNVYAFGEHILQISKYS [IRIS peptide]
reduction in survival [1]: 50% | BRCA1-IRIS and survivin staining of remaining tumor (BRCA1-IRIS and survivin): almost complete absence of BRCA1-IRIS and survivin staining | ability to form hanging drops (SKOV3 cells [2]): complete loss of ability | BRCA1-IRIS expression (BRCA1-IRIS): significant reduction in BRCA1-IRIS expression | decreased ability to invade (SKOV3 cells [3]): ~100 fold | total and activated AKT (p-AKT) levels ([4]; 5 μM IRIS peptide or 10 μM LY294002, 24 hours): decreased the levels of total and activated AKT (p-AKT) in both cell lines | p-FOXO and FOXO3a levels ([4]; 5 μM IRIS peptide, 10 μM LY294002 or 10 μM PD98059, 24 hours): decreased p-FOXO level and increased the levels of FOXO3a in both cell lines | IC50 (BT549 cells): ~5 µM
